Assay results taken from PubChem BioAssay (NCI).
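Grown in 96-well plates, cells were treated for 48 hours with each compound at five concentrations. Insufficient inhibition: endpoint recorded as highest concentration tested. GI50 is the concentration that inhibits growth by half. TGI is the concentration that stops growth completely.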

How the values were obtained:
Assay in all cases: DTP human tumour cell line panel, 48 h
[1] = tested on: HS 578T breast
[2] = tested on: IGROV1 ovarian
[3] = tested on: HT29 colon
[4] = tested on: HOP-92 NSCLC
[5] = tested on: NCI-H460 lung
[6] = tested on: CCRF-CEM leukemia
[7] = tested on: OVCAR-5 ovarian
[8] = tested on: RPMI-8226 leukemia
[9] = tested on: MCF7 breast
[10] = tested on: EKVX NSCLC

Row | SMILES | GI50 [1] [µM] | TGI [1] [µM] | GI50 [2] [µM] | TGI [2] [µM] | GI50 [3] [µM] | TGI [3] [µM] | GI50 [4] [µM] | TGI [4] [µM] | GI50 [5] [µM] | TGI [5] [µM] | GI50 [6] [µM] | TGI [6] [µM] | GI50 [7] [µM] | TGI [7] [µM] | GI50 [8] [µM] | TGI [8] [µM] | GI50 [9] [µM] | TGI [9] [µM] | GI50 [10] [µM] | TGI [10] [µM]
1 | CC(C)CCSC1=CC(=O)c2ccccc2C1=O | 5.5 | 30.7 | 1.06 | 5 | 23.7 | 53.7 | 1.2 | 2.62 | 16.7 | 42.9 | 0.215 | 0.62 | 18.1 | 34 | 0.0469 | 0.304 | 1.42 | 3.63 | 4.5 | 16.6
2 | CNC(=O)c1c(NC(=O)c2ccc(C(F)(F)F)cc2)sc2c1CCC(=O)C2 | 0.774 | 13.2 | 0.471 | 4.89 | 0.555 | 5.27 | 0.256 | 2.15 | 0.89 | 4.19 | 0.155 | – | 0.607 | 2.76 | 0.272 | 0.884 | 0.837 | 4.13 | 0.89 | 6.05
3 | CCNCCC1(CC)C(=O)NC(=O)NC1=O | – | > 100 | – | > 100 | – | > 100 | – | > 100 | – | > 100 | > 100 | > 100 | – | > 100 | – | > 100 | – | > 100 | – | > 100
4 | C[C@H]1CC[C@H]([C@@H](C)[C@H]2[C@@H](O)C[C@H]3[C@@H]4CC[C@H]5C[C@@H](O)CC[C@]5(C)[C@H]4CC[C@]23C)NC1 | – | 57.7 | – | 35.4 | – | 34.2 | – | 33.7 | – | 39.7 | – | 29 | – | 49.4 | – | 30.7 | – | 47.2 | – | 32.5
5 | CCC(=O)C1(c2ccccc2)CCN(C)CC1 | – | > 100 | – | > 100 | – | > 100 | – | > 100 | – | > 100 | – | > 100 | – | > 100 | – | > 100 | – | > 100 | – | > 100
6 | CN[C@@H](C)C(=O)N[C@H]1CN(C(=O)CC(C)C)CC[C@H]2CC[C@@H](C(=O)NC(c3ccccc3)c3ccccc3)N2C1=O | > 81.7 | > 100 | > 100 | > 100 | 53.2 | > 100 | – | > 45.4 | > 100 | > 100 | > 100 | > 100 | > 100 | > 100 | > 74.9 | > 100 | > 100 | > 100 | > 100 | > 100
7 | COC(=O)[C@H]1C(=O)[C@@]2(C)[C@H]([C@H](OC(=O)c3ccccc3)[C@]3(O)C[C@H](OC(=O)[C@H](O)[C@@H](NC(=O)c4ccc(F)cc4)c4ccccc4)C(C)=C1C3(C)C)[C@]1(OC(C)=O)CO[C@@H]1C[C@@H]2O | 0.00363 | 0.0231 | 0.00478 | > 7.29 | 0.00378 | > 25 | – | > 14.5 | 0.00739 | 3.64 | 0.00685 | > 8.69 | 0.0149 | > 25 | 0.00484 | 0.271 | 0.00354 | > 25 | 0.0181 | > 25
